Reference: ChEMBL document CHEMBL5143578, “Elucidation of structure-activity relationship of humulanolides and identification of humulanolide analog as a novel HSP90 inhibitor” (Bioorg Med Chem Lett, 2022)
Calls of active or inactive are those of the source. The rule behind the calls is not given here.

system: Ca9-22; test: Antiproliferative activity against human Ca9-22 cells incubated for 24 hrs by MTT assay; type: functional, cell-based; conditions: Ca9-22, 24 h

Compound | IC50 [µM]
CC1(C)/C=C/C(=O)[C@@]2(C)O[C@@H]2CCC2=C[C@@H]1OC2=O | > 10
CC1(C)/C=C/[C@H](O)[C@@]2(C)O[C@H]2CCC2=C[C@@H]1OC2=O | > 10
C/C1=C/CCC23C(=O)O[C@H]4[C@@H]2[C@@H](C1=O)[C@@H]3C4(C)C | > 10
C/C1=C/CC[C@@H]2C(=O)O[C@H]3[C@@H]2C(=CC3(C)C)C1=O | > 10
CC1=CCCC23C(=O)O[C@H]4[C@@H]2[C@@H]([C@H]3C1=O)C4(C)C (some centres undefined) | > 10
C/C1=C\CCC2=C[C@H](OC2=O)C(C)(C)/C=C/[C@@H]1O | > 10

system: SK-MEL-28; test: Antiproliferative activity against human SK-MEL-28 cells incubated for 24 hrs by MTT assay; type: functional, cell-based; conditions: SK-MEL-28, 24 h

Compound | IC50 [µM]
CC1(C)/C=C/C(=O)[C@@]2(C)O[C@@H]2CCC2=C[C@@H]1OC2=O | > 10
CC1(C)/C=C/[C@H](O)[C@@]2(C)O[C@H]2CCC2=C[C@@H]1OC2=O | > 10
C/C1=C/CCC23C(=O)O[C@H]4[C@@H]2[C@@H](C1=O)[C@@H]3C4(C)C | > 10
C/C1=C/CC[C@@H]2C(=O)O[C@H]3[C@@H]2C(=CC3(C)C)C1=O | > 10
CC1=CCCC23C(=O)O[C@H]4[C@@H]2[C@@H]([C@H]3C1=O)C4(C)C (some centres undefined) | > 10
C/C1=C\CCC2=C[C@H](OC2=O)C(C)(C)/C=C/[C@@H]1O | > 10

system: HT-1080; test: Induction of cell morphological changes in human HT-1080 cells at 10 uM incubated for 24 hrs by phase contrast microscopic analysis; type: functional, cell-based; conditions: not given

Compound | Activity
COC1=C2C[C@@H](C)C[C@H](OC)[C@H](O)[C@@H](C)/C=C(\C)[C@H](OC(N)=O)[C@@H](OC)/C=C\C=C(/C)C(=O)NC(=CC1=O)C2=O | Active

system: A549; test: Antiproliferative activity against human A549 cells incubated for 24 hrs by MTT assay; type: functional, cell-based; conditions: A549, 24 h

Compound | IC50 [µM]
CC1(C)/C=C/C(=O)[C@@]2(C)O[C@@H]2CCC2=C[C@@H]1OC2=O | > 10
CC1(C)/C=C/[C@H](O)[C@@]2(C)O[C@H]2CCC2=C[C@@H]1OC2=O | > 10
C/C1=C/CCC23C(=O)O[C@H]4[C@@H]2[C@@H](C1=O)[C@@H]3C4(C)C | > 10
C/C1=C/CC[C@@H]2C(=O)O[C@H]3[C@@H]2C(=CC3(C)C)C1=O | > 10
CC1=CCCC23C(=O)O[C@H]4[C@@H]2[C@@H]([C@H]3C1=O)C4(C)C (some centres undefined) | > 10
C/C1=C\CCC2=C[C@H](OC2=O)C(C)(C)/C=C/[C@@H]1O | > 10

system: PC-3; test: Antiproliferative activity against human PC-3 cells incubated for 24 hrs by MTT assay; type: functional, cell-based; conditions: PC-3, 24 h

Compound | IC50 [µM]
CC1(C)/C=C/C(=O)[C@@]2(C)O[C@@H]2CCC2=C[C@@H]1OC2=O | > 10
CC1(C)/C=C/[C@H](O)[C@@]2(C)O[C@H]2CCC2=C[C@@H]1OC2=O | > 10
C/C1=C/CCC23C(=O)O[C@H]4[C@@H]2[C@@H](C1=O)[C@@H]3C4(C)C | > 10
C/C1=C/CC[C@@H]2C(=O)O[C@H]3[C@@H]2C(=CC3(C)C)C1=O | > 10
CC1=CCCC23C(=O)O[C@H]4[C@@H]2[C@@H]([C@H]3C1=O)C4(C)C (some centres undefined) | > 10
C/C1=C\CCC2=C[C@H](OC2=O)C(C)(C)/C=C/[C@@H]1O | > 10

system: HeLa; test: Antiproliferative activity against human HeLa cells incubated for 24 hrs by MTT assay; type: functional, cell-based; conditions: not given

Compound | IC50 [µM]
CC1(C)/C=C/C(=O)[C@@]2(C)O[C@@H]2CCC2=C[C@@H]1OC2=O | > 10
CC1(C)/C=C/[C@H](O)[C@@]2(C)O[C@H]2CCC2=C[C@@H]1OC2=O | > 10
C/C1=C/CCC23C(=O)O[C@H]4[C@@H]2[C@@H](C1=O)[C@@H]3C4(C)C | > 10
C/C1=C/CC[C@@H]2C(=O)O[C@H]3[C@@H]2C(=CC3(C)C)C1=O | > 10
CC1=CCCC23C(=O)O[C@H]4[C@@H]2[C@@H]([C@H]3C1=O)C4(C)C (some centres undefined) | > 10
C/C1=C\CCC2=C[C@H](OC2=O)C(C)(C)/C=C/[C@@H]1O | > 10

system: HT-1080; test: Antiproliferative activity against human HT-1080 cells incubated for 24 hrs by MTT assay; type: functional, cell-based; conditions: HT-1080, 24 h

Compound | IC50 [µM]
CC1(C)/C=C/C(=O)[C@@]2(C)O[C@@H]2CCC2=C[C@@H]1OC2=O | > 10
CC1(C)/C=C/[C@H](O)[C@@]2(C)O[C@H]2CCC2=C[C@@H]1OC2=O | > 10
C/C1=C/CCC23C(=O)O[C@H]4[C@@H]2[C@@H](C1=O)[C@@H]3C4(C)C | > 10
C/C1=C/CC[C@@H]2C(=O)O[C@H]3[C@@H]2C(=CC3(C)C)C1=O | > 10
CC1=CCCC23C(=O)O[C@H]4[C@@H]2[C@@H]([C@H]3C1=O)C4(C)C (some centres undefined) | > 10
C/C1=C\CCC2=C[C@H](OC2=O)C(C)(C)/C=C/[C@@H]1O | > 10

system: CHL-1; test: Antiproliferative activity against human CHL-1 cells incubated for 24 hrs by MTT assay; type: functional, cell-based; conditions: CHL-1, 24 h

Compound | IC50 [µM]
CC1(C)/C=C/C(=O)[C@@]2(C)O[C@@H]2CCC2=C[C@@H]1OC2=O | > 10
CC1(C)/C=C/[C@H](O)[C@@]2(C)O[C@H]2CCC2=C[C@@H]1OC2=O | > 10
C/C1=C/CCC23C(=O)O[C@H]4[C@@H]2[C@@H](C1=O)[C@@H]3C4(C)C | > 10
C/C1=C/CC[C@@H]2C(=O)O[C@H]3[C@@H]2C(=CC3(C)C)C1=O | > 10
CC1=CCCC23C(=O)O[C@H]4[C@@H]2[C@@H]([C@H]3C1=O)C4(C)C (some centres undefined) | > 10
C/C1=C\CCC2=C[C@H](OC2=O)C(C)(C)/C=C/[C@@H]1O | > 10

system: HCT-116; test: Antiproliferative activity against human HCT-116 cells incubated for 24 hrs by MTT assay; type: functional, cell-based; conditions: HCT-116, 24 h

Compound | IC50 [µM]
CC1(C)/C=C/C(=O)[C@@]2(C)O[C@@H]2CCC2=C[C@@H]1OC2=O | > 10
CC1(C)/C=C/[C@H](O)[C@@]2(C)O[C@H]2CCC2=C[C@@H]1OC2=O | > 10
C/C1=C/CCC23C(=O)O[C@H]4[C@@H]2[C@@H](C1=O)[C@@H]3C4(C)C | > 10
C/C1=C/CC[C@@H]2C(=O)O[C@H]3[C@@H]2C(=CC3(C)C)C1=O | > 10
CC1=CCCC23C(=O)O[C@H]4[C@@H]2[C@@H]([C@H]3C1=O)C4(C)C (some centres undefined) | > 10
C/C1=C\CCC2=C[C@H](OC2=O)C(C)(C)/C=C/[C@@H]1O | > 10
